{"source": "patent US5436243A", "about": "“Aminoanthraquinone derivatives to combat multidrug resistance” (priority 1993, dated 1995)", "key": {"[1]": {"biological_target": "P-glycoprotein in MCF7 Adr 10 membrane vesicles (Homo sapiens, UniProt P08183)", "sequence (P08183 whole entry)": "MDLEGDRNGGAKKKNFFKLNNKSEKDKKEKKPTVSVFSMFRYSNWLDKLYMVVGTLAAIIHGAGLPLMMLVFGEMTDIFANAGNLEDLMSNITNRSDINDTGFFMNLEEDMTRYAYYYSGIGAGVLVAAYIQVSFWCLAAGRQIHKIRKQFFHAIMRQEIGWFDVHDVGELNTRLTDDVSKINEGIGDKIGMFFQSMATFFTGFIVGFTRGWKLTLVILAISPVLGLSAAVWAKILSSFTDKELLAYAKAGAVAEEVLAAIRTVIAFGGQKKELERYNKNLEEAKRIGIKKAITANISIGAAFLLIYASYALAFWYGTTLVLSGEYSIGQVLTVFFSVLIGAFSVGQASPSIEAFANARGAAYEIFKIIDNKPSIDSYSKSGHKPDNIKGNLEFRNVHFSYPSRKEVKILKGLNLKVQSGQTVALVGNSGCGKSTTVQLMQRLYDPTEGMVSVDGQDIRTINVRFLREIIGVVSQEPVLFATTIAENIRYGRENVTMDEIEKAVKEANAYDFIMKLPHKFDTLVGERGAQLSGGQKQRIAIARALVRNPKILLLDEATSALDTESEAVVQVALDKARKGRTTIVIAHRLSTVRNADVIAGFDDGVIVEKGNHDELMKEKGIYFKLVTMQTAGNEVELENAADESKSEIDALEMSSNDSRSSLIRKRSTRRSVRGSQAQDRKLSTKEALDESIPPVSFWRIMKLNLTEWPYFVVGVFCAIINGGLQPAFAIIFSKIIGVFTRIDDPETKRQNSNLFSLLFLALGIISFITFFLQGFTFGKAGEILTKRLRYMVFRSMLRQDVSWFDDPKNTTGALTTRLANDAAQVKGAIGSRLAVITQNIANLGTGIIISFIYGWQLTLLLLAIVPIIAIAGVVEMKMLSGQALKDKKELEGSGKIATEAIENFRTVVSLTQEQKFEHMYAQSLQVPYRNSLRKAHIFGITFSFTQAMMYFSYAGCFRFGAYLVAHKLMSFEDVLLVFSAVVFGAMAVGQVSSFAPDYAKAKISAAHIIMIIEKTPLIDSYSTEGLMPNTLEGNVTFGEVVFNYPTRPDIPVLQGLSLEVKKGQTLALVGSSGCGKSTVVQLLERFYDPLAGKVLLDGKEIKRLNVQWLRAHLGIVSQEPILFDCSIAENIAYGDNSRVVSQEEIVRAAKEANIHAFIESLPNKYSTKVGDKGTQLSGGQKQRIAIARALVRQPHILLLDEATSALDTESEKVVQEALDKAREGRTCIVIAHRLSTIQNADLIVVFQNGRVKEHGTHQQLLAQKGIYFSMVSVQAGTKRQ"}, "[2]": {"assay": "Partition in Bligh-Dyer extracts", "format": "physicochemical", "settings": "Bligh-Dyer extracts of treated cells", "protocol": "At these wavelengths, there was minimal absorbance by cellular components contained in the chloroform phase. […] METHOD: […] The monolayers were treated with 25 μM 1b or 1c and incubated at 37° C. After incubating the samples for the times indicated in FIG. 1, the monolayers were washed three times with DPBS and detached using 1 ml of Trypsin-EDTA.An aliquot of the cell suspension was counted using a Coulter Counter and a 0.8 ml aliquot was extracted in a Bligh-Dyer extraction (Bligh et at., Can. J. Biochem. 31:911-916 (1959)). The absorbance of the lower chloroform phase was measured at 648 nm and 600 nm using a spectrophotometer. The amount of 1b or 1c present in the extract was quantitated from a standard curve performed in cell extracts. The data is expressed as nmol anthraquinone/10^6 cells."}, "[3]": {"test_system": "catalytic subunits of protein kinase A", "assay": "Protein kinase A catalytic subunit inhibition", "format": "biochemical", "source_text": "(§1) One possible explanation for stimulation of phosphorylation of P-glycoprotein and MARCKS is that 1c may activate PKC or other cellular kinases by signal transduction pathways that have not yet been identified to phosphorylate these proteins. An alternative explanation for stimulation of phosphorylation of P-glycoprotein and MARCKS is that 1c inhibits protein phosphatases."}, "[4]": {"test_system": "MCF7 Adr 10 human breast cancer cells", "assay": "Vinblastine accumulation assay, MCF7 Adr 10", "format": "cell-based", "protocol": "[^3 H] vinblastine ([^3 H] VLB) was added to a final concentration of 100 nM and the cells were incubated for 2.5 hours. At this time, the cells were washed 3 times in ice cold PBS and lysed in buffer containing 0.1% Triton X-100. Net accumulation of [^3 H] vinblastine was expressed as pmol/mg protein. In [^3 H]"}, "[5]": {"test_system": "MCF7 Adr 10 human breast cancer cells", "assay": "Time course of accumulation of anthraquinones in cells", "format": "cell-based", "settings": "25 μM, 37° C., MCF7 Adr 10 cells", "protocol": "METHOD: Near confluent monolayers of MCF7 ADR 10 were washed 2 times with Dulbecco's Phosphate Buffered Saline (DPBS) and 1 ml of Iscove's Modified Dulbecco's Medium (IMDM) was added to each well. The monolayers were treated with 25 μM 1b or 1c and incubated at 37° C. After incubating the samples for the times indicated in FIG. 1, the monolayers were washed three times with DPBS and detached using 1 ml of Trypsin-EDTA.An aliquot of the cell suspension was counted using a Coulter Counter and a 0.8 ml aliquot was extracted in a Bligh-Dyer extraction (Bligh et at., Can. J. Biochem. 31:911-916 (1959)). The absorbance of the lower chloroform phase was measured at 648 nm and 600 nm using a spectrophotometer. The amount of 1b or 1c present in the extract was quantitated from a standard curve performed in cell extracts. The data is expressed as nmol anthraquinone/10^6 cells."}, "casein kinase 2": {"test_system": "casein kinase 2", "assay": "Casein kinase 2 inhibition", "format": "biochemical", "source_text": "as §1"}, "other phosphoproteins": {"test_system": "other phosphoproteins", "assay": "Overall phosphoprotein changes in cell extracts", "format": "cell-based", "source_text": "as §1"}}, "note": "Entries after “also recorded” stand apart in the source; their conditions may differ.", "data": [{"smiles": "O=C1c2ccccc2C(=O)c2c(NCCCN3CCOCC3)ccc(NCCCN3CCOCC3)c21", "note": "[Compound 1c, 1,4-bis-[[3'(4-morpholino)propyl]amino]anthraquinone]", "values": [{"measurement": "effect on non-specific binding of [3H] VLB", "setting": "[1]", "value": "no effect"}, {"measurement": "blue color partitioning with cellular phospholipids in the lower chloroform phase", "setting": "[2]", "value": "> 95", "unit": "%"}, {"measurement": "protein kinase A inhibitory activity", "setting": "[3]", "value": "did not inhibit"}, {"measurement": "minimal effective concentration", "setting": "[4]; Homo sapiens, NCI/ADR-RES, 100 nM [3H] VLB, 2.5 hours, FIGS. 2 and 3, read-out: lowest concentration which causes a doubling of basal accumulation of vinblastine", "value": 0.5, "unit": "µM"}, {"measurement": "activity in vinblastine accumulation assay / drug accumulation", "setting": "[4]; MDR MCF7", "value": "greater activity than 1b; also recorded: greatest activity in drug accumulation assays; also recorded: increase vinblastine accumulation in MDR MCF7; also recorded: activity superior to verapamil at concentrations between 0.5 μM and 10 μM"}, {"measurement": "time of maximal accumulation of 1b and 1c", "setting": "[5]", "value": "about 2 hours"}, {"measurement": "casein kinase 2 inhibitory activity", "setting": "casein kinase 2", "value": "did not inhibit"}, {"measurement": "phosphorylation of other phosphoproteins", "setting": "other phosphoproteins", "value": "did not significantly alter phosphorylation of other phosphoproteins"}]}]}
